The values that follow come from patent publication US6903079B2, “Nucleoside compounds and compositions thereof” (Inotek Pharmaceuticals Corporation, priority 2000, dated 2005).

In experiment [1] the test system is endotoxin-induced lethality in a mouse model. The experiment can be described thus: Endotoxin-induced lethality (systemic inflammation). In kind it is in vivo. On the procedure:
The compounds were given as oral gavage at 10 mg/kg, twice a day.

The test system of experiment [2] is mouse model of gut ischemia-reperfusion. The experiment can be described thus: Gut ischemia-reperfusion by ligation and release of superior mesenteric artery; FD4 gut permeability in everted gut sacks. Conditions: 10 mg/kg i.v. 10 min prior to reperfusion.
Method: In order to examine the efficacy of the compounds of the invention in ischemia-reperfusion conditions, the effect of selected compounds in a local model of reperfusion injury was examined. […] The artery was occluded for 45 min, followed by reperfusion for 1 h. Following the end of the reperfusion, gut permeability was measured with the fluorescein isothiocyanate-conjugated dextran (FD4) method in everted gut sacks.
The artery was occluded for 45 min, followed by reperfusion for 1 h. Following the end of the reperfusion, gut permeability was measured with the FD4 method in everted gut sacks.
The test system of experiment [3] is rat model of middle cerebral artery occlusion/reperfusion. The experiment can be described thus: Middle cerebral artery occlusion/reperfusion. In kind it is in vivo. The note with it: 2 h occlusion, 24 h reperfusion, 10 mg/kg i.v. then 10 mg/kg/h, tetrazolium staining. On the procedure:
Occlusion lasted for 2 hours, followed by reperfusion for 24 hours. Infarct size was quantified with tetrazolium staining and survival and neurological scores were monitored. The compounds were administered at 10 mg/kg i.v. 5 min before the start of reperfusion in one group, and continued at a rate of 10 mg/kg/h infusion during the reperfusion. Vehicle-treated animals (control) developed a >50% mortality over 24 hours, whereas <10% of the animals died in the drug treated groups. The compounds tested reduced the size of brain infarction by 64±2 and 57±3%, respectively.

In another experiment the target is PARS (Mus musculus, UniProt P11103). Description: PARS inhibition by nucleoside derivatives (in vitro inflammation models). The format is cell-based. The source says: For example, conjugates of adenosine derivatives were investigated for PARS inhibition.
Experiment [4] relates to myocardial ischemia-reperfusion in Male Wistar rats. The experiment can be described thus: Myocardial infarction by left anterior descending coronary artery occlusion/reperfusion. In kind it is in vivo. Conditions: rat; 20 mg/kg i.v. 10 min before reperfusion; 1 h ischemia, 2 h reperfusion. On the procedure: In another set of experiments, Male Wistar rats were anesthetized with thiopentone sodium (60 mg/kg, i.p.) and were subjected to myocardial infarction. The chest was opened at the fourth intercostal space and a 5.0 silk ligature was placed around the left anterior descending coronary artery for occlusion. Next, one hour of myocardial ischemia was performed, followed by 2 h reperfusion. Myocardial infarct size was quantified by tetrazolium staining.

PARS, sequence (P11103 whole entry, the tested form may be a part): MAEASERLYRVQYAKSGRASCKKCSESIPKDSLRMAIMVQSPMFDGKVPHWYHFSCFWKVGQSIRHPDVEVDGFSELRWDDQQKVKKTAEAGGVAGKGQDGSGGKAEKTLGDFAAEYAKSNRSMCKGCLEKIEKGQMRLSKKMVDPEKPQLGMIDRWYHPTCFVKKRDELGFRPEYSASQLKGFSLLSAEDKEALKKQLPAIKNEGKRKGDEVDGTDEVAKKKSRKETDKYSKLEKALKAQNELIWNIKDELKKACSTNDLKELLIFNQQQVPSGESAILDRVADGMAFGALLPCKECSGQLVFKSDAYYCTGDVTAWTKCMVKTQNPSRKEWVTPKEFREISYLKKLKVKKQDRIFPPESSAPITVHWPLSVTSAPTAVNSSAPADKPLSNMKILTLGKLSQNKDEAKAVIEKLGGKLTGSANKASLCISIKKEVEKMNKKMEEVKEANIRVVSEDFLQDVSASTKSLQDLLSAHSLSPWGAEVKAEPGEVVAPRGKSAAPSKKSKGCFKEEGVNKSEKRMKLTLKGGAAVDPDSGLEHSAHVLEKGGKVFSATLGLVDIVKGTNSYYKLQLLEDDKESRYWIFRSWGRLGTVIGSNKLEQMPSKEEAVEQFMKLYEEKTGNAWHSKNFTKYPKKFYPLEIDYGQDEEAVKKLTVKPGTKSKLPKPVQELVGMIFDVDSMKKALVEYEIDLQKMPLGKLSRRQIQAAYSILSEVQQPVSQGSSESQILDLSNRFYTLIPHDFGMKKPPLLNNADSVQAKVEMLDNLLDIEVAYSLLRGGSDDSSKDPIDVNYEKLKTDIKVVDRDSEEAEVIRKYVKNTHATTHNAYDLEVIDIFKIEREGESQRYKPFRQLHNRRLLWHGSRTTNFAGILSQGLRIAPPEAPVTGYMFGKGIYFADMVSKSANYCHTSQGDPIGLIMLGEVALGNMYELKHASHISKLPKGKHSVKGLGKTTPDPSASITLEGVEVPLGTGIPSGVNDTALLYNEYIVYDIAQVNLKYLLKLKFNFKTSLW

For `CN(CCC(=O)Nc1cccc2c1CNC2=O)C(=O)C1OC(n2cnc3c(N)ncnc32)C(O)C1O` (stereo not shown) [Compound 124], in experiment [1], the “protection against endotoxin-induced lethality” value is on record as “protected against endotoxin-induced lethality”. Besides, in experiment [2], the “reduction of the increase in the permeability of the gut” value is 72%. Further, the “reduction of the size of brain infarction” value in experiment [3] was 64±2%.

On to `Nc1ncnc2c1ncn2C1OC(C(=O)N2CCN(CC(=O)Nc3cccc4c3CNC4=O)CC2)C(O)C1O` (stereo not shown) [Compound 130], for which the “PARS inhibitory activity (in words)” value on PARS was “most potent”. In addition, on PARS (10 μM, values marked *, asterisk not explained, read-out: Inhibition at 10 μM (values marked *)), the inhibition at 10 µM was 97%. For the same compound, the “Inhibition at 200 nm” value at PARS (200 nm, printed in the 100 μM column) came to 100 at 200 nm. Besides, the “protection against endotoxin-induced lethality” value in experiment [1] is on record as “protected against endotoxin-induced lethality”. In addition, the “reduction of the increase in the permeability of the gut” value in experiment [2] is on record as 74%. In addition, the “reduction of the size of brain infarction” value in experiment [3] stood at 57±3%. Also, the “reduction of myocardial infarct size” value in experiment [4] worked out at 35±7%.

A word on the inhibition: it is the percentage by which the read-out fell short of the control.
